In US20200308624A1, “Phosphate and tensin homolog (PTEN) for the detection of autoimmune diseases or conditions” (Universitätsmedizin der Johannes Gutenberg-Universität Mainz, priority 2019, published 2020):

What was measured:
Assay type in all cases: cell-based, human
PKB/c-Akt = PKB/c-Akt phosphorylation in T cells after culture with IL-6 (flow cytometry)
Method: (§1) FIG. 5: IL-6 mediates Treg resistance by inducing the phosphorylation of PKB/c-Akt and downregulation of PTEN in activated T cells A) T cells and Treg were cocultured in presence (grey) or absence (black) of IL-6 and stimulated with anti-CD3 mAb. […] B) PKB/c-Akt phosphorylation was analyzed by flow cytometry within T cells after 24 h of culture with (black) or without IL-6 (grey). C) T cells from HC were incubated for 24 h without IL-6 (black) or with IL-6 (grey) or IL-6 and anti-IL-6R mAb (striped). Shown is the mean fluorescence intensity (MFI) of pPKB/c-Akt in T cells (n=5). D) PBMC from HC were cultured for 24 h in the presence or absence of 500 ng/ml IL-6. […] Total proteins were isolated and PTEN protein expression was analyzed via western blot.
Flow cytometric analysis was performed using the following antibodies: anti-human CD3 (UCHT1), anti-human CD4 (RPA-T4), anti-human CD8 (SK1), anti-human CD14 (M5E2), anti-human CD19 (HIB19), all from BD Pharmingen, anti-human CD25 (4E3), anti-human CD127 (MB15-18C9), all from Miltenyi Biotec. […] Cell viability during flow cytometric analysis was determined using 7-AAD and eFluor506 (eBioscience). […] Stained cells were measured on LSRII with FACS Diva Software (BD Bioscience) or FACSVia™ and data was analyzed with BD FACSVia Research Software (BD Biosciences). […]

[1] = system: Treg-resistant T cells from MS patients; assay: Suppressor assay: MS T cells cocultured with Treg, proliferation by 3H-Tdr incorporation; conditions: anti-CD3 mAb stimulation, FIG. 1E, n=4
Method: A) PBMC from therapy-naïve MS patients (red) or HC (black) were cocultured with Treg and stimulated with anti-CD3 mAb. T cell proliferation was determined by ^3H-Tdr incorporation on day three. Box plots show percentage of suppression in presence of Treg (ratio 4:1) normalized to proliferation of T cells alone as median with interquartile range (n=15), P-values relative to T cells of HC are shown, to avoid familywise error rate bonferroni correction was used p*. B) C) IL-6R expression within CD3+ T cells of PBMC from HC or MS was determined by flow cytometry. One representative of eight independent experiments is shown. D) PKB/c-Akt phosphorylation was determined by flow cytometry within CD3^+ T cells of MS (red) or HC (black). Six different experiments are shown, p-values relative to MFI of HC. E) MS T cells with Treg were stimulated with anti-CD3 mAb without (circle) or with (quadrats) anti-IL-6R mAb or (triangles) Akt-VIII inhibitor. Each dot represents percentage of proliferation with Treg normalized to T cells alone (n=4), p-values to MS T cells.
CD4^+CD25^− T cells (10^5 cells/well, 96 well plate, flat bottom) were stimulated with 0.1 μg/ml anti-CD3 mAb (OKT-3) and cultured in presence or absence of different Treg ratios. CD3-depleted PBMC (5×10^4/well) were used as costimulus. […] T cell proliferation was measured by ^3H-Tdr incorporation using a liquid […] counter. […]

[2] = system: CD4+CD25- T cells from healthy donors; assay: Suppressor assay: T cells and Treg cocultured in presence of IL-6 (3H-Tdr); conditions: T cells from healthy donors incubated overnight with IL-6 (500 ng/ml)
From the text: In addition to PKB, also IL-6 and its signaling pathway play a crucial role in whether T cells from MS patients respond to suppression by Treg or not. In the context of autoimmune diseases, it has been investigated how the increased IL-6 production observed in MS can affect PTEN protein expression.
as §1
CD4^+CD25^− T cells (10^5 cells/well, 96 well plate, flat bottom) were stimulated with 0.1 μg/ml anti-CD3 mAb (OKT-3) and cultured in presence or absence of different Treg ratios. […] T cell proliferation was measured by ^3H-Tdr incorporation using a liquid […] counter. […]

PTEN protein = PTEN protein expression in IL-6-treated activated CD4+ T cells (Western blot); conditions: IL-6-treated (500 ng/ml, 24 h) T cells, 2 hours after polyclonal activation, compared to untreated controls
Method: FIG. 5: IL-6 mediates Treg resistance by inducing the phosphorylation of PKB/c-Akt and downregulation of PTEN in activated T cells A) T cells and Treg were cocultured in presence (grey) or absence (black) of IL-6 and stimulated with anti-CD3 mAb. […] B) PKB/c-Akt phosphorylation was analyzed by flow cytometry within T cells after 24 h of culture with (black) or without IL-6 (grey). C) T cells from HC were incubated for 24 h without IL-6 (black) or with IL-6 (grey) or IL-6 and anti-IL-6R mAb (striped). Shown is the mean fluorescence intensity (MFI) of pPKB/c-Akt in T cells (n=5). D) PBMC from HC were cultured for 24 h in the presence or absence of 500 ng/ml IL-6. CD4^+ T cells were isolated, left unstimulated or were activated with anti-CD3 and anti-CD28 mAb for two hours. Total proteins were isolated and PTEN protein expression was analyzed via western blot.
Cell pellets were lysed in Cell Extraction Buffer (Invitrogen) supplemented with 1 mM PMSF (Invitrogen) and Protease Inhibitor Cocktail (Sigma) for 30 min on ice with vortexing at 10 min intervals. Total protein concentration of cell lysates was determined with Micro BCA Protein Assay Kit (Thermo Fisher Scientific) according to manufacturer's protocol. Protein separation was performed using the NuPAGE® Bis-Tris electrophoresis system (Thermo Fisher Scientific). […] Western blots were analyzed and quantified with ImageJ software.

Compound | IL-6-induced hyperactivation of PKB (PKB/c-Akt; T cells from HC, 24 h with IL-6 and anti-IL-6R mAb, n=5) | responsiveness towards Treg-mediated suppression [1] | Treg resistance [2] | phosphorylation of protein kinase B (PKB/c-Akt; T cells from healthy donors, 24 h with IL-6) | PTEN protein expression (PTEN protein)
Tocilizumab [anti-IL-6 receptor antibody] | abolished this effect | restores responsiveness towards Treg-mediated suppression | – | – | –
IL-6: cytokine IL-6 (ImmunoTools) added to cultures | – | – | induce Treg resistance | increased phosphorylation of protein kinase B | significant decrease in PTEN protein expression
O=c1[nH]c2ccccc2n1C1CCN(Cc2ccc(-c3nc4cc5nc[nH]c5cc4nc3-c3ccccc3)cc2)CC1 [Akt VIII] | – | restores responsiveness towards Treg-mediated suppression | – | – | –
